In one assay the target is human FLAP (Homo sapiens (Human), UniProt P20292). Nature of the assay: FLAP binding assay (HTRF format). The method in brief: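 Reported data take the mean of two different plates carrying duplicate samples and use the HTRF ratio as the measured signal.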
A general note: In TR-FRET formats the signal depends on donor and acceptor labels being close together.

Assay [1] concerns leukotriene pathway in human whole blood (LTB4 levels). Nature of the assay: Human whole blood assay (A23187-stimulated LTB4). Format: cell-based. As to conditions: Homo sapiens, human whole blood diluted 1:1, A23187-stimulated; read-out: LTB4 IC50 1:1. The method in brief: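 Heparinised human whole blood diluted 1:1 in RPMI, pre-incubated 15 min at 37° Celsius with compound, then stimulated with A23187 (7 μg/mL) for 30 min at 37° Celsius. Plasma LTB4 measured by immunoassay kit; IC50 from 4-parameter fit; single replicate per plate, at least one healthy donor.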

The mark [2] stands for this setting: read-out: FLAP Binding wild type HTRF Ki.

Counter-ions that a name gives are not always drawn. Like-named read-outs stand apart in the source and are kept apart here.

These results are taken from patent US9079866B2, “Flap modulators” (JANSSEN PHARMACEUTICA NV, priority 2013, dated 2015).

What is called Ki is the dissociation constant of the complex between target and ligand, obtained from inhibition or displacement. In general, IC50 refers to the concentration that gives 50% inhibition.

Sequence of human FLAP (P20292 whole entry): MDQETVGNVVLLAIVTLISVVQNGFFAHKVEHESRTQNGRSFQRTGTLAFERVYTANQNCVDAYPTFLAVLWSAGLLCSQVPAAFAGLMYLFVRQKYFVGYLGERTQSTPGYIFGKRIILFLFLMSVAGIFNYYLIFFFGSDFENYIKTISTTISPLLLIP

For the molecule `Nc1cnc(-c2ccc(-c3cccnc3S(=O)(=O)C3CCCCC3)cc2F)cn1` [Example 808, 5-(4-(2-(Cyclohexylsulfonyl)pyridin-3-yl)-2-fluorophenyl)pyrazin-2-amine hydrochloride], the affinity at human FLAP (wild type FLAP, HTRF format), expressed as Ki, was 0.4 nM. For the same molecule, the IC50 in assay [1] amounted to 6.37 nM.
For `Nc1ncc(-c2ccc(-c3cccnc3S(=O)(=O)C3CCCC3)cc2F)cn1` [Example 809, 5-(4-(2-(Cyclopentylsulfonyl)pyridin-3-yl)-2-fluorophenyl)pyrimidine-2-amine hydrochloride] the same measures were 3.8 nM and 37.7 nM.
For `Nc1cnc(-c2ccc(-c3cccnc3S(=O)(=O)C3CCCC3)cc2F)cn1` [Example 810, 5-(4-(2-(Cyclopentylsulfonyl)pyridin-3-yl)-2-fluorophenyl)pyrazin-2-amine hydrochloride], in that order: 0.6 nM and 5.64 nM.
In the case of `CC(C)(C)S(=O)(=O)c1ncccc1-c1ccc(-c2cnc(N)nc2)c(F)c1` [Example 811, 5-(4-(2-(tert-Butylsulfonyl)pyridin-3-yl)-2-fluorophenyl)pyrimidin-2-amine formic acid salt], at human FLAP (setting [2]), the Ki stood at 315 nM. Moreover, the IC50 in assay [1] amounted to 541 nM.
`CC(C)(C)S(=O)(=O)c1ncccc1-c1ccc(-c2cnc(N)cn2)c(F)c1` [Example 812, 5-(4-(2-(tert-Butylsulfonyl)pyridin-3-yl)-2-fluorophenyl)pyrazin-2-amine formic acid salt]: the Ki at human FLAP (setting [2]) amounted to 8.5 nM. Moreover, the IC50 in assay [1] came to 12 nM.
With `CC(=O)N1CCC(S(=O)(=O)c2ncccc2-c2ccc(-c3cnc(N)nc3)c(F)c2)CC1` [Example 815], the affinity on human FLAP (wild type FLAP, HTRF format) corresponds to a Ki of 256 nM. Moreover, in assay [1], the IC50 came to 128 nM.
`CC(=O)N1CCC(S(=O)(=O)c2ncccc2-c2ccc(-c3cnc(N)cn3)c(F)c2)CC1` [Example 816, 1-((3-(4-(2-Aminopyrazin-5-yl)-3-fluorophenyl)pyridine-2-yl)sulfonyl)piperidin-1-yl)ethanone hydrogen chloride salt] displayed a Ki on human FLAP (wild type FLAP, HTRF format) of 21.8 nM. The IC50 in assay [1] was determined as 46 nM.
For `COCCCS(=O)(=O)c1ncccc1-c1ccc(-c2cnc(N)cn2)c(F)c1` [Example 818, 5-(2-Fluoro-4-(2-((3-methoxypropyl)sulfonyl)pyridine-3-yl)phenyl)pyrazin-2-amine hydrogen chloride salt] the same measures were 27.2 nM and 51.6 nM.
The molecule `Nc1ncc(-c2ccc(-c3cccnc3S(=O)(=O)C3CCS(=O)(=O)CC3)cc2F)cn1` [Example 819, 4-((3-(4-(2-aminopyrimidin-5-yl)-3-fluorophenyl)pyridine-2-yl)sulfonyl)tetrahydro-2H-thiopyran 1,1-dioxide] had a Ki on human FLAP (wild type FLAP, HTRF format) of 40.5 nM. Moreover, the IC50 in assay [1] was 47.5 nM.
Turning to `Nc1cnc(-c2ccc(-c3cccnc3S(=O)(=O)C3CCS(=O)(=O)CC3)cc2F)cn1` [Example 820, 4-((3-(4-(2-Aminopyrazin-5-yl)-3-fluorophenyl)pyridine-2-yl)sulfonyl)tetrahydro-2H-thiopyran 1,1-dioxide], the Ki on human FLAP (wild type FLAP, HTRF format) was found to be 3.3 nM. In addition, the IC50 in assay [1] was 41.6 nM.
For `Nc1cnc(-c2ccc(-c3cccnc3S(=O)(=O)CCN3CCOCC3)cc2F)cn1` [Example 822, 5-(2-Fluoro-4-(2-((2-morpholinoethyl)sulfonyl)pyridine-3-yl)phenyl)pyrazin-2-amine], in that order: 280 nM and 99.1 nM.
`Nc1ncc(-c2ccc(-c3cccnc3S(=O)(=O)CC3CCOCC3)cc2F)cn1` [Example 823, 5-(2-Fluoro-4-(2-(((tetrahydro-2H-pyran-4-yl)methyl)sulfonyl)pyridine-3-yl)pyrimidin-2-amine formic acid salt] came in with a Ki at human FLAP (wild type FLAP, HTRF format) of 192 nM. In assay [1], the IC50 was found to be 95.1 nM.
At human FLAP (wild type FLAP, HTRF format), `Nc1cnc(-c2ccc(-c3cccnc3S(=O)(=O)CC3CCOCC3)cc2F)cn1` [Example 824, 5-(2-Fluoro-4-(2-(((tetrahydro-2H-pyran-4-yl)methyl)sulfonyl)pyridine-3-yl)pyrazin-2-amine formic acid salt] came in with a Ki of 10.3 nM. In addition, the IC50 in assay [1] came to 18 nM.
For `CC(C)S(=O)(=O)c1ncccc1-c1ccc(-c2cnc(N)nc2)c(F)c1` [Example 825, 5-(2-Fluoro-4-{2-[(1-methylethyl)sulfonyl]pyridin-3-yl}phenyl)pyrimidin-2-amine] the same measures were 273 nM and 122 nM.
For `CC(C)S(=O)(=O)c1ncccc1-c1ccc(-c2cnc3[nH]ccc3c2)c(F)c1` [Example 826, 5-(2-Fluoro-4-(2-(isopropylsulfonyl)pyridine-3-yl)phenyl)-1H-pyrrolo[2,3-b]pyridine], the Ki at human FLAP (wild type FLAP, HTRF format) came to 0.7 nM. Besides, in assay [1], the IC50 stood at 19.9 nM.
With `Nc1ncc(-c2ccc(-c3cccnc3S(=O)(=O)C3CC3)cc2F)cn1` [Example 828, 5-{4-[2-(Cyclopropylsulfonyl)pyridin-3-yl]-2-fluorophenyl}pyrimidin-2-amine formic acid salt], at human FLAP (setting [2]), the Ki was found to be 115 nM. Also, the IC50 in assay [1] stood at 260 nM.
On human FLAP (wild type FLAP, HTRF format), `Nc1cnc(-c2ccc(-c3cccnc3S(=O)(=O)C3CC3)cc2F)cn1` [Example 829, 5-{4-[2-(Cyclopropylsulfonyl)pyridin-3-yl]-2-fluorophenyl}pyrazin-2-amine formic acid salt] yielded a Ki of 3.2 nM. Moreover, the IC50 in assay [1] is 5.96 nM.
For `Nc1cnc(-c2ccc(-c3cccnc3S(=O)(=O)C3CCOCC3)cc2F)cn1` [Example 830, 5-{2-Fluoro-4-[2-(tetrahydro-2H-pyran-4-ylsulfonyl)pyridin-3-yl]phenyl}pyrazin-2-amine hydrochloride] the same measures were 2.9 nM and 5.55 nM.
Take `Nc1ncc(-c2ccc(-c3cccnc3S(=O)(=O)C3CCOCC3)cc2F)cn1` [Example 831, 5-{2-Fluoro-4-[2-(tetrahydro-2H-pyran-4-ylsulfonyl)pyridin-3-yl]phenyl}pyrimidin-2-amine formic acid salt]: at human FLAP (setting [2]), the Ki amounted to 131 nM. For the same molecule, in assay [1], the IC50 was found to be 79.2 nM.
Turning to `COc1c(-c2ccccc2)ccc(-c2cnc(N)cn2)c1F` [Example 834, 5-(3-Fluoro-2-methoxybiphenyl-4-yl)pyrazin-2-amine], the affinity on human FLAP (wild type FLAP, HTRF format) corresponds to a Ki of 48.9 nM. The IC50 in assay [1] came out at 1090 nM.
For `COc1c(-c2ccccc2S(C)(=O)=O)ccc(-c2cnc(N)cn2)c1F` [Example 835, 5-[3-Fluoro-2-methoxy-2′-(methylsulfonyl)biphenyl-4-yl]pyrazin-2-amine] the same measures were roughly 354 nM and 417 nM.
For the molecule `COc1c(-c2ccccc2S(=O)(=O)NC(C)(C)C)ccc(-c2cnc(N)cn2)c1F` [Example 836, 4′-(5-Aminopyrazin-2-yl)-N-tert-butyl-3′-fluoro-2′-methoxybiphenyl-2-sulfonamide], at human FLAP (wild type FLAP, HTRF format), the Ki amounted to 25.5 nM. The IC50 in assay [1] was 595 nM.
On human FLAP (wild type FLAP, HTRF format), `Nc1cnc(-c2ccc(-c3ccccc3-c3cnccn3)cc2F)cn1` [Example 838, 5-(3-Fluoro-2′-(pyrazin-2-yl)-[1,1′-biphenyl]-4-yl)pyrazin-2-amine] displayed a Ki of 28.6 nM. In assay [1], the IC50 was found to be 350 nM.
As to `Nc1ncc(-c2ccc(-c3ccccc3-c3cnccn3)cc2F)cn1` [Example 839, 5-(3-Fluoro-2′-pyrazin-2-ylbiphenyl-4-yl)pyrimidin-2-amine], at human FLAP (wild type FLAP, HTRF format), the affinity corresponds to a Ki of 830 nM. In addition, in assay [1], the IC50 is 2790 nM.
